# Reference: patent US8415340B2, “Triazine kinase inhibitors” (Bristol-Myers Squibb Company, priority 2007, dated 2013)
# System: IGF1R-Sal tumors
# Test: IGF-1R Sal Tumor Model
# Assay type: in vivo
# Settings: orally, qd × 4 days, nude mice bearing IGF1R-Sal tumors
# Procedure: P. IGF-1R Sal Tumor Model
# A salivary gland adenocarcinoma that developed spontaneously in a transgenic mouse (MCI-19) was excised and cut into fragments of about 20 mg. Tumor fragments were implanted s.c. into the ventral thoracic region of a group of six female, athymic BALB/c nu/nu mice (Harley Sprague-Dawley, Indianapolis, Ind.), using a 13-gauge trocar. Once established, the salivary gland-derived tumor line was designated IGF1R-Sal and was propagated as a tumor xenograft in nude mice. Tumors were passaged every 2 weeks, at which time the tumor reached f500 to 1,000 mm3 in size. For treatment studies, nude micebearing IGF1R-Sal tumors of about 100 mm3 in size were sorted into groups of five for treatment with vehicle (80% polyethylene glycol 400 in water) alone or the test article. Compounds were administered either on a bid schedule (oral doses 8 hours apart) or on a once a day schedule orally (qd) for 4 consecutive days. Tumors were measured at the start and end of treatment. Activity was measured as % tumor growth inhibition (% TGI). The % TGI was determined using the following formula (Ct−Tt)/(Ct−Co) where Ct is defined as the median tumor size of the control group at the end of treatment, Co is defined as the median tumor size of the control group at the start of treatment, and Tt is defined as the median tumor size of the treated group at the end of treatment.
Structure (SMILES),% TGI (6.25 mpk) [%],% TGI (50 mpk) [%],% TGI (3.13 mpk) [%]
"O=C(Nc1cnccn1)[C@@H]1C[C@H](O)CN1c1nc(Nc2cc(C3CC3)n[nH]2)nc(N2CCOCC2)n1 [Example 85, (2S,4S)-1-(4-(3-Cyclopropyl-1H-pyrazol-5-ylamino)-6-morpholino-1,3,5-triazin-2-yl)-4-hydroxy-N-(pyrazin-2-yl)pyrrolidine-2-carboxamide]",49,–,–
"CN1CCN(c2nc(Nc3cc(C4CC4)n[nH]3)nc(N3C[C@H](F)C[C@H]3C(=O)Nc3ncns3)n2)CC1 [Example 83, (2S,4R)-1-(4-(3-Cyclopropyl-1H-pyrazol-5-ylamino)-6-(4-methylpiperazin-1-yl)-1,3,5-triazin-2-yl)-4-fluoro-N-(1,2,4-thiadiazol-5-yl)pyrrolidine-2-carboxamide]",–,27,–
"CN1CCN(c2nc(Nc3cc(C4CC4)n[nH]3)nc(N3C[C@H](F)C[C@H]3C(=O)Nc3cnccn3)n2)CC1 [Example 68, (2S,4R)-1-(4-(3-Cyclopropyl-1H-pyrazol-5-ylamino)-6-(4-methylpiperazin-1-yl)-1,3,5-triazin-2-yl)-4-fluoro-N-(pyrazin-2-yl)pyrrolidine-2-carboxamide]",7,–,–
"COCCN1CCN(c2nc(Nc3cc(C4CC4)n[nH]3)nc(N3C[C@H](F)C[C@H]3C(=O)Nc3ncns3)n2)CC1 [Example 84, (2S,4R)-1-(4-(3-Cyclopropyl-1H-pyrazol-5-ylamino)-6-(4-(2-methoxyethyl)piperazin-1-yl)-1,3,5-triazin-2-yl)-4-fluoro-N-(1,2,4-thiadiazol-5-yl)pyrrolidine-2-carboxamide]",–,25,–
"O=C(Nc1cnccn1)[C@@H]1C[C@@H](F)CN1c1nc(Nc2cc(C3CC3)n[nH]2)nc(N2CCOCC2)n1 [Example 65, (2S,4R)-1-(4-(3-Cyclopropyl-1H-pyrazol-5-ylamino)-6-morpholino-1,3,5-triazin-2-yl)-4-fluoro-N-(pyrazin-2-yl)pyrrolidine-2-carboxamide]",–,–,80
"CO[C@H]1C[C@@H](C(=O)Nc2cnccn2)N(c2nc(Nc3cc(C4CC4)n[nH]3)nc(N3CCOCC3)n2)C1 [Example 18, (2S,4S)-1-(4-(3-Cyclopropyl-1H-pyrazol-5-ylamino)-6-morpholino-1,3,5-triazin-2-yl)-4-methoxy-N-(pyrazin-2-yl)pyrrolidine-2-carboxamide]",–,–,96
